Data reported in patent publication US10945992B1, “Dosage forms of rofecoxib and related methods” (Tremeau Pharmaceuticals, Inc., priority 2019, dated 2021).

What was measured:
[1] = cited from earlier work
[2] = LC-MS/MS method validation: stability of rofecoxib; format: physicochemical, human
Source text: In order to support clinical studies with TRM-201 (rofecoxib), a method was developed for the determination of rofecoxib in human plasma by LC-MS/MS. This method was validated in accordance with the FDA Good Laboratory Practice Regulations (GLP) as set forth in Title 21 of the U S. Code of Federal Regulations Part 58 as well as FDA Guidance for Industry: Bioanalytical Method Validation, May 2018.

Which results are given for `CS(=O)(=O)c1ccc(C2=C(c3ccccc3)C(=O)OC2)cc1` [TRM-201, 4-[4-(methylsulfonyl)phenyl]-3-phenyl-2(5H)-furanone]?
incidence of gastrointestinal (GI) ulcers visualized at endoscopy compared to certain non-selective NSAIDs ([1]; FDA 2005): reduction; risk of serious GI bleeding compared to a non-selective NSAID (naproxen) ([1]; following chronic use, FDA 2005): reduce the risk; risk of serious adverse cardiovascular events compared to placebo ([1]; long-term controlled clinical trial / FDA 2005): increased risk; Processed Sample Stability ([2]; at 4° C.): 174 Hours at 4 °C; Stock Solution Stability in Dimethyl Sulfoxide ([2]; at Ambient Temperature): 17 Hours at Ambient Temperature; Benchtop Stability in Plasma ([2]; at Ambient Temperature, human plasma): 26 Hours at Ambient Temperature; Stock Solution Stability in Dimethyl Sulfoxide ([2]; at −20° C.): 202 Days at −20 °C; Freeze/Thaw Stability in Plasma ([2]; at −20° C. and −70° C.): 5 Cycles at −20 °C and −70 °C; Long-term Storage Stability in Plasma ([2]; at −20° C. and −70° C.): 184 Days at −20 °C and −70 °C; Benchtop Stability in Whole Blood ([2]; in an Ice Bath when Centrifuged at 4° C. or Ambient Temperature): 2 Hours in an Ice Bath when
